What was measured:
[1] = molecular target: T1, recombinant, purified human Caspase-3 (Homo sapiens, UniProt P42574); assay: Enzyme assay, caspase inhibition (fluorogenic substrate cleavage); assay type: biochemical; details: second order rate constant of enzyme inactivation; substrate Acetyl-Asp-Glu-Val-Asp-amino-4-methylcoumarin
T1 sequence (P42574 29-175 limits assumed): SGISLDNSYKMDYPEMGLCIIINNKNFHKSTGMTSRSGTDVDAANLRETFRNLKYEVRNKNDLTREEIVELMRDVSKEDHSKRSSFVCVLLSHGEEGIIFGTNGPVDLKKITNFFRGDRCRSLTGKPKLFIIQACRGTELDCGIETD
T1 sequence (P42574 176-277 limits assumed): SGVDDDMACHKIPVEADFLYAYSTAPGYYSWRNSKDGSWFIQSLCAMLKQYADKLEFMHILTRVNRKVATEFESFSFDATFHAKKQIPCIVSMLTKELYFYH
Text: (§1) The assays for caspase inhibition are based on the cleavage of a fluorogenic substrate by recombinant, purified human Caspases −1, −3, −7 or −8. The assays are run in essentially the same way as those reported by Garcia-Calvo et al., J. Biol. Chem. 273, 32608-32613 (1998), using a substrate specific for each enzyme. The substrate for Caspase-1 is Acetyl-Tyr-Val-Ala-Asp-amino-4-methylcoumarin and the substrate for Caspases −3, −7 and −8 is Acetyl-Asp-Glu-Val-Asp-amino-4-methylcoumarin both as disclosed in Garcia-Calvo et al., J. Biol. Chem. 273, 32608-32613 (1998).
(§2) The observed rate of enzyme inactivation at a particular inhibitor concentration, kobs, is computed by direct fits of the data to the equation derived by Thornberry et al., Biochemistry, 33, […] (1994) using a nonlinear least-squares analysis computer program (PRISM 2.0; GraphPad software). To obtain the second order rate constant, kinact, kobs values are plotted against their respective inhibitor concentrations and kinact values are subsequently calculated by computerized linear regression.
(§3) Compounds with kinact(M^−1s^−1)>500000 are listed as “A”. Compounds with kinact(M^−1s^−1) between 100000 and 500000 are listed as “B”. Compounds with kinact(M^−1s^−1)<100000 are listed as “C”.

[2] = molecular target: recombinant, purified human Caspase-8 (Homo sapiens, UniProt Q14790); assay: as above; assay type: biochemical; details: second order rate constant of enzyme inactivation; substrate Acetyl-Asp-Glu-Val-Asp-amino-4-methylcoumarin
Text: as §1, §2, §3

[3] = molecular target: T2, recombinant, purified human Caspase-1 (Homo sapiens, UniProt P29466); assay: as above; assay type: biochemical; details: second order rate constant of enzyme inactivation; substrate Acetyl-Tyr-Val-Ala-Asp-amino-4-methylcoumarin
T2 sequence (P29466 120-297 limits assumed): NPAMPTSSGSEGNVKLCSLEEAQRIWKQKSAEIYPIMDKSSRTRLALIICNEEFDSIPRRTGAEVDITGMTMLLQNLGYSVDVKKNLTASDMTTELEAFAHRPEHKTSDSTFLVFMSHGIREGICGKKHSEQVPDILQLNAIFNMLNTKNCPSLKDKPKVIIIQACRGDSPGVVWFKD
T2 sequence (P29466 317-404 limits assumed): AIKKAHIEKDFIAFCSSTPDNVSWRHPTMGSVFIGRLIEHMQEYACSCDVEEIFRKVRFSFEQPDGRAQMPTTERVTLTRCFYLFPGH
Text: as §1, §2, §3

rat cortical neurons = assay: Hypoxia-induced apoptosis of rat cortical neurons; assay type: cell-based, Wistar rat; details: Cortical neurone, oxygen-depleted serum-free medium, Cell Death Detection ELISA (DNA fragmentation)
Protocol: Cortical neurons are dissociated from Wistar rat embryos (E17) by a modification of the procedure of Rogers et al., Brain Res. Bulletin, 44:131 (1998). Briefly, cerebral cortices are isolated aseptically from 15-20 Wistar rat embryos. A cell suspension is prepared by mincing the cerebral cortices and digesting them with papain. Cells are washed with ovomucoid enzyme inhibitor and DNaseI and plated onto Poly-D lysine coated plates in high glucose DMEM containing 10% heat-inactivated fetal calf serum, L-glutamine, penicillin and streptomycin. The yield of neurons is […] per embryo and they are 80-90% viable as assessed by Trypan blue exclusion.
The neurons are cultured in complete medium at 37° C. in a normal atmosphere for 48 hours prior to the hypoxia experiments. For hypoxia, the normal cell medium is replaced by oxygen-depleted serum-free medium. Cells are incubated in an atmosphere of 95% N2/5% CO2 for various lengths of time. Compounds are dissolved in DMSO at 100 mM then diluted in medium and added to the culture from time=0. The level of apoptosis is measured using a Cell Death Detection ELISA kit (Roche) which detects DNA fragmentation. Plates are read at 405 nm. Controls included cells cultured in aerobic conditions in serum-containing medium (+serum) and cells cultured in aerobic conditions in serum-deprived medium (−serum).
Compounds with an IC50>0.5 μM are listed as “A”. Compounds with an IC50 between 0.1 μM and 0.5 uM are listed as “B”. Compounds with an IC50<0.1 μM are listed as “C”.

[4] = system: IL-1β secretion from human whole blood; assay: Inhibition of IL-1β secretion from whole blood; assay type: cell-based; details: human whole blood diluted 1:2 in PBS, LPS 5 ng/ml, 18 hours, ELISA
Protocol: Human blood is freshly drawn from healthy donors and diluted 1:2 in PBS. To 500 μl of diluted blood […] of prediluted test compound in RPMI medium and […] LPS (5 ng/ml final concentration on the plate) are added (LPS, Serotype 0111:B4, Sigma L3012). After stimulation for 18 hours supernatants are collected and assayed for IL-1β levels using the appropriate ELISA kit (R&D systems).
Compounds with an IC50>10 μM are listed as “A”. Compounds with an IC50 between 1 μM and 10 uM are listed as “B”. Compounds with an IC50<1 μM are listed as “C”.

Chain of recombinant, purified human Caspase-8 (Q14790 217-374 limits assumed): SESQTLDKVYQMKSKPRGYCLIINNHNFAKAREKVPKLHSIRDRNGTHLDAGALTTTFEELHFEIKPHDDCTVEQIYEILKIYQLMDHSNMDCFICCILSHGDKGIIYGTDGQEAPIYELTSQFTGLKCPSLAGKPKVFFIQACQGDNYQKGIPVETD
Chain of recombinant, purified human Caspase-8 (Q14790 385-479 limits assumed): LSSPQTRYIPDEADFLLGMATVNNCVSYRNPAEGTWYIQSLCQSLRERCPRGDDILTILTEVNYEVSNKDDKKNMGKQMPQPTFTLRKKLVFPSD

SMILES	IC50 [4] [nM]	kinact Caspase-3 [1]	kinact Caspase-8 [2]	kinact Caspase-1 [3]	IC50 (rat cortical neurons) [nM]
CC[C@@H](C(=O)N[C@@H](CC(=O)O)C(=O)COc1c(F)c(F)cc(F)c1F)n1ccc2ccccc2c1=O [Compound 9, (S,S)-3-[2-(1-oxo-1H-isoquinolin-2-yl)-butyrylamino]-4-oxo-5-(2,3,5,6-tetrafluoro-phenoxy)-pentanoic acid]	> 10000	B (Compounds with kinact(M^−1s^−1) between 100000 and 500000 are listed as “B”)	C (Compounds with kinact(M^−1s^−1)<100000 are listed as “C”)	B (Compounds with kinact(M^−1s^−1) between 100000 and 500000 are listed as “B”)	100 to 500
CC[C@@H](C(=O)N[C@@H](CC(=O)O)C(=O)COc1c(F)c(F)cc(F)c1F)n1ccc2ccc(Cl)cc2c1=O [Compound 10, (S,S)-3-[2-(7-chloro-1-oxo-1H-isoquinolin-2-yl)-butyrylamino]-4-oxo-5-(2,3,5,6-tetrafluoro-phenoxy)-pentanoic acid]	1000 to 10000	A (Compounds with kinact(M^−1s^−1)>500000 are listed as “A”)	C (Compounds with kinact(M^−1s^−1)<100000 are listed as “C”)	A (Compounds with kinact(M^−1s^−1)>500000 are listed as “A”)	< 100
CC[C@@H](C(=O)N[C@@H](CC(=O)O)C(=O)COc1c(F)c(F)cc(F)c1F)n1ccc2ccc(C(F)(F)F)cc2c1=O [Compound 19, (S,S)-3-[2-(7-trifluoromethyl-1-oxo-1H-isoquinolin-2-yl)-butyrylamino]-4-oxo-5-(2,3,5,6-tetrafluoro-phenoxy)-pentanoic acid]	1000 to 10000	A (Compounds with kinact(M^−1s^−1)>500000 are listed as “A”)	C (Compounds with kinact(M^−1s^−1)<100000 are listed as “C”)	A (Compounds with kinact(M^−1s^−1)>500000 are listed as “A”)	< 100
CC[C@@H](C(=O)NC(CC(=O)O)C(=O)CF)n1cnc2ccc(Sc3ccccc3)cc2c1=O (stereo partly drawn) [Compound 16, 5-Fluoro-4-oxo-3-[(2S)-2-(4-oxo-6-phenylsulfanyl-4H-quinazolin-3-yl)-butyrylamino]-pentanoic acid]	1000 to 10000	A (Compounds with kinact(M^−1s^−1)>500000 are listed as “A”)	A (Compounds with kinact(M^−1s^−1)>500000 are listed as “A”)	A (Compounds with kinact(M^−1s^−1)>500000 are listed as “A”)	100 to 500
CC[C@@H](C(=O)NC(CC(=O)O)C(=O)CF)n1cnc2ccc(Oc3ccccc3Cl)cc2c1=O (stereo partly drawn) [Compound 12, 3-[(2S)-2-[6-(2-Chloro-phenoxy)-4-oxo-4H-quinazolin-3-yl)-butyrylamino]-5-fluoro-4-oxo-pentanoic acid]	1000 to 10000	A (Compounds with kinact(M^−1s^−1)>500000 are listed as “A”)	A (Compounds with kinact(M^−1s^−1)>500000 are listed as “A”)	A (Compounds with kinact(M^−1s^−1)>500000 are listed as “A”)	> 500
CC[C@@H](C(=O)NC(CC(=O)O)C(=O)CF)n1ccc2ccc(C(F)(F)F)cc2c1=O (mixture of isomers) [Compound 2, (S)-3-[2-(7-trifluoromethyl-1-oxo-1H-isoquinolin-2-yl)-butyrylamino]-5-fluoro-4-oxo-pentanoic acid]	< 1000	A (Compounds with kinact(M^−1s^−1)>500000 are listed as “A”)	A (Compounds with kinact(M^−1s^−1)>500000 are listed as “A”)	A (Compounds with kinact(M^−1s^−1)>500000 are listed as “A”)	> 500

Continued, in another order:

IC50 [4] [nM]	SMILES	kinact Caspase-3 [1]	kinact Caspase-8 [2]	kinact Caspase-1 [3]	IC50 (rat cortical neurons) [nM]
< 1000	CC[C@@H](C(=O)NC(CC(=O)O)C(=O)CF)n1ccc2ccc(Cl)cc2c1=O (mixture of isomers) [Compound 1, (S)-3-[2-(7-chloro-1-oxo-1H-isoquinolin-2-yl)-butyrylamino]-5-fluoro-4-oxo-pentanoic acid]	A (Compounds with kinact(M^−1s^−1)>500000 are listed as “A”)	B (Compounds with kinact(M^−1s^−1) between 100000 and 500000 are listed as “B”)	A (Compounds with kinact(M^−1s^−1)>500000 are listed as “A”)	100 to 500
> 10000	CC[C@@H](C(=O)N[C@@H](CC(=O)O)C(=O)COc1c(F)cc(F)cc1F)n1cnc2ccccc2c1=O [Compound 7, (S,S)-4-Oxo-3-[2-(4-oxo-4H-quinazolin-3-yl)-butyrylamino]-5-(2,4,6-trifluoro-phenoxy)-pentanoic acid]	B (Compounds with kinact(M^−1s^−1) between 100000 and 500000 are listed as “B”)	C (Compounds with kinact(M^−1s^−1)<100000 are listed as “C”)	C (Compounds with kinact(M^−1s^−1)<100000 are listed as “C”)	> 500
1000 to 10000	CC[C@@H](C(=O)NC(CC(=O)O)C(=O)CF)n1cnc2ccc(Oc3cccc(Cl)c3)cc2c1=O (stereo partly drawn) [Compound 13, 3-[(2S)-2-[6-(3-Chlorophenoxy)-4-oxo-4H-quinazolin-3-yl)-butyrylamino]-5-fluoro-4-oxo-pentanoic acid]	B (Compounds with kinact(M^−1s^−1) between 100000 and 500000 are listed as “B”)	A (Compounds with kinact(M^−1s^−1)>500000 are listed as “A”)	B (Compounds with kinact(M^−1s^−1) between 100000 and 500000 are listed as “B”)	100 to 500
1000 to 10000	CC[C@@H](C(=O)NC(CC(=O)O)C(=O)CF)n1cnc2ccc(Oc3ccc(Cl)cc3Cl)cc2c1=O (stereo partly drawn) [Compound 15, 3-{(2S)-2-[6-(2,4-Dichloro-phenoxy)-4-oxo-4H-quinazolin-3-yl]-butyrylamino}-5-fluoro-4-oxo-pentanoic acid]	B (Compounds with kinact(M^−1s^−1) between 100000 and 500000 are listed as “B”)	A (Compounds with kinact(M^−1s^−1)>500000 are listed as “A”)	B (Compounds with kinact(M^−1s^−1) between 100000 and 500000 are listed as “B”)	100 to 500
